Results published in patent US7541364B2, “Pyridomorphinans, pyridazinomorphinans and use thereof” (priority 2003, dated 2009).
Where two headings read alike, the source gives them in different places.

Key:
[1] = target: T1, opioid κ receptor (Cavia porcellus, UniProt P41144); details: for selectivity ratio κ/δ: ratio of binding Ki values; for Ki: read-out: Ki (nM) ± SEM κ, displacement of [3H]U69,593 (1.2-[…]), guinea pig brain membranes
[2] = target: T2, κ receptor (Cavia porcellus, UniProt P41144); experiment: biochemical
T2 sequence (P41144 whole entry): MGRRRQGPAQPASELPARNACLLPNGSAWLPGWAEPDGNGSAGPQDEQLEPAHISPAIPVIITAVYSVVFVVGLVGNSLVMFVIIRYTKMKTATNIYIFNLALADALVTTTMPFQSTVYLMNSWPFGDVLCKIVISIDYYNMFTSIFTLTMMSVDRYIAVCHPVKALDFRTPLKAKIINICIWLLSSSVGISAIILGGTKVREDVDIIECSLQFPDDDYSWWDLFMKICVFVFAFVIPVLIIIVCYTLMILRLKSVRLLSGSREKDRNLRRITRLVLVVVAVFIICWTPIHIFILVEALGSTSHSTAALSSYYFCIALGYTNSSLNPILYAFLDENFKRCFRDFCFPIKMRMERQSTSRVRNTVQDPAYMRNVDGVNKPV

[3] = system: mice; experiment: 55° C. tail-flick antinociception test in mice; details: for naloxone sensitivity: naloxone 10 mg/kg ip, -10 min, yes = greater than 80% reduction in the antinociceptive effect
Protocol: Analgesic Testing and Assessment of Tolerance Development. The analgesic activity of selected ligands is tested in mice using the 55° C. tail-flick test as previously described. (See Wells et al., supra.) The test compounds are administered by the intracerbroventricular (icv) route. […] To determine whether the analgesic activity of the tested compounds is mediated through opioid receptors, the blockade of antinociceptive activity by pretreatment with naloxone is carried out. The analgesic activity was considered as naloxone sensitive if greater than 80% reduction in the antinociceptive response is observed.
Antinociceptive Studies. Male ICR mice (Harlan) are used for all evaluations. Mice are housed in a temperature and humidity controlled vivarium on a 12:12 h light:dark cycle with unlimited access to food and water prior to the formal procedures. […] The dihydrochloride salt of 7h is dissolved in water and injected in a volume of 5 μL. All other compounds are dissolved in 100% DMSO and injected in a volume of 5 μL. Antinociceptive assays are performed at various times after injection.
Percent antinociception is calculated using the formula: % MPE (maximal possible effect)=100×(test−control)/(cutoff−control) where control is the predrug observation, test is the postdrug observation, and cutoff is the maximal length of stimulus allowed (10 s for 55° C. tail-flick). Antinociceptive A50 values and 95% confidence intervals are determined using linear regression software (FlashCalc). Opioid activity of the test compounds are assessed by pretreating animals with naloxone (10 mg/kg ip, −10 min) followed by an icv injection of an approximate A90 dose of test compound. […] Antinociception is assessed in the 55° C. tail-flick test at 10, 20 and 30 min. A positive response to a fixed dose of naloxone is indicated when greater than 80% reduction in the antinociceptive effect of the agonist is observed.

[4] = target: T3, δ receptor (Cavia porcellus, UniProt A0A286XTF2); experiment: biochemical
T3 sequence (A0A286XTF2 1-366): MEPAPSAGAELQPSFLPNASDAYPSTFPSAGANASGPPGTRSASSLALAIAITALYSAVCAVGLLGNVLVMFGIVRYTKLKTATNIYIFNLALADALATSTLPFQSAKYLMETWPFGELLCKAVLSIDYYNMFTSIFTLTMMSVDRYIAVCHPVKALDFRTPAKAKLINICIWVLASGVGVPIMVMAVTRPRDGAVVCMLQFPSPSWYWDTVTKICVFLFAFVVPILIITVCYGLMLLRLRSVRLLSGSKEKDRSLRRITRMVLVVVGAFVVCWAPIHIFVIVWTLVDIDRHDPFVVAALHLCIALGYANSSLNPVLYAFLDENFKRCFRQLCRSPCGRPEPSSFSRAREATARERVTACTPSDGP

[5] = target: T4, μ receptor (Cavia porcellus, UniProt A0ACM8Q262); details: read-out: antagonist activity apparent Ki (nM ± SD) μ; inhibition of DAMGO (10 μM) stimulated [35S]GTP-γ-S binding
T4 sequence (A0ACM8Q262 1-400): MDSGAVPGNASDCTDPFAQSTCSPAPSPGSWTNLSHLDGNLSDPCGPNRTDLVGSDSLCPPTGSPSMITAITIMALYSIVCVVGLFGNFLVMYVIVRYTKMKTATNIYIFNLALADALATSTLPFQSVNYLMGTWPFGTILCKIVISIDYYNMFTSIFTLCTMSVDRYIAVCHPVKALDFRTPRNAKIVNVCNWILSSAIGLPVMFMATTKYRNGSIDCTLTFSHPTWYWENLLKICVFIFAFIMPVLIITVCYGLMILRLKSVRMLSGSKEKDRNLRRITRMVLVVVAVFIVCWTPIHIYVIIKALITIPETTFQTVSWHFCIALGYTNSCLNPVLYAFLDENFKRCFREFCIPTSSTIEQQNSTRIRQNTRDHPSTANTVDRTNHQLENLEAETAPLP

[6] = target: T5, opioid μ receptor (Rattus norvegicus, UniProt P33535); details: for selectivity ratio μ/δ: ratio of binding Ki values; for Ki: read-out: Ki (nM) ± SEM μ, displacement of [3H]DAMGO (1.4-3.0 nM), rat brain membranes
T5 sequence (P33535 whole entry): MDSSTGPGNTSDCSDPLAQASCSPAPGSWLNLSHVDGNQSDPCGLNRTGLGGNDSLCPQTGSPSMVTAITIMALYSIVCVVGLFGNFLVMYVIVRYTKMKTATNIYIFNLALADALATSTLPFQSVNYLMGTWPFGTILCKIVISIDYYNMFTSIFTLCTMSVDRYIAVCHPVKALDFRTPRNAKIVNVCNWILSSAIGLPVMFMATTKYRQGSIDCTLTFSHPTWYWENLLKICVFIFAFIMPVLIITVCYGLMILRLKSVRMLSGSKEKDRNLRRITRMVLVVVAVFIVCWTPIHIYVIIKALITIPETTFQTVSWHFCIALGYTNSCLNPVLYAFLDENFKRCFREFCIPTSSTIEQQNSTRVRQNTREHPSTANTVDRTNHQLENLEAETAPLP

[7] = target: T6, opioid δ receptor (Rattus norvegicus, UniProt P33533); experiment: Opioid δ receptor binding, [3H]DADLE displacement in rat brain membranes
T6 construct: Rat membranes are prepared each day using a partially thawed frozen rat brain; from tissue; host or cells: rat brain membranes
T6 sequence (P33533 whole entry): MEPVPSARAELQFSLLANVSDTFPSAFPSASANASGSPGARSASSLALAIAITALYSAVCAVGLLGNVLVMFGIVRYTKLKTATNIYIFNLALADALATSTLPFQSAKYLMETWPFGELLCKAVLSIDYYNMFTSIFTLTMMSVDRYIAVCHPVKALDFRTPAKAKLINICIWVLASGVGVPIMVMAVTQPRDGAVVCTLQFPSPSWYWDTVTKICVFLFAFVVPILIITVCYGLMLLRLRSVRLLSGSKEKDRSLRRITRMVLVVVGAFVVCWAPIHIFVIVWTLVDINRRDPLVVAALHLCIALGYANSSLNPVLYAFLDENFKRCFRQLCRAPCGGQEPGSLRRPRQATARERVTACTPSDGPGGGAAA

[8] = target: T7, δ receptor (mouse vas deferens) (Mus musculus, UniProt P32300); experiment: Mouse vas deferens (MVD) smooth muscle bioassay; design: from tissue; host or cells: mouse vas deferens (male ICR mice)
T7 sequence (P32300 whole entry): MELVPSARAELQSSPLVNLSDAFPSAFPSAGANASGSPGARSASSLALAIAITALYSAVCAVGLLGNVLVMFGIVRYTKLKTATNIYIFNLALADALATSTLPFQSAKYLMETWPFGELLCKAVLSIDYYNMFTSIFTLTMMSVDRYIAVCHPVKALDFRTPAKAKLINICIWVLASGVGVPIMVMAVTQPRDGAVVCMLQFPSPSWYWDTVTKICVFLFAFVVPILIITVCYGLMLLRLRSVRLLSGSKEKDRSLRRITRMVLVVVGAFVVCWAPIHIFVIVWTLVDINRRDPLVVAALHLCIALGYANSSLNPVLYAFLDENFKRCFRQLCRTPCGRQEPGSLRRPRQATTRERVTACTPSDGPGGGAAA
Protocol: (§1) Bioassays in Smooth Muscle Preparations. The functional activity profiles of selected ligands are also determined in the mouse vas deferens (MVD) and guinea pig ileum (GPI) smooth muscle preparations as described previously.
(§2) The agonist activity is determined by the ability of the compound to inhibit electrically stimulated contractions of the GPI and MVD. The GPI is primarily a μ receptor preparation, even though the ileum does also contain κ receptors. In the MVD, the opioid effects are predominantly mediated through δ receptors, but μ and κ receptors also exist in this tissue.
(§3) Tissues came from male ICR mice weighing 25-40 g and male Hartley guinea pigs weighing 250-500 g. The tissues are tied to gold chain with suture silk, suspended in 20 mL baths containing 37° C. oxygenated (95% O2, 5% CO2) Krebs bicarbonate solution (magnesium free for the MVD), and allowed to equilibrate for 15 min. The tissues are then stretched to optimal length previously determined to be 1 g tension (0.5 g for MVD) and allowed to equilibrate for 15 min. The tissues are stimulated transmurally between platinum wire electrodes at 0.1 Hz, 0.4 ms pulses (2-ms pulses for MVD), and supramaximal voltage. […] Tissues not producing typical results are not used. Experimental compounds were added to the baths in 14-60 μL volumes. Succeeding doses of agonist are added cumulatively to the bath at 3 min intervals to produce a concentration-response curve. The tissues are then washed extensively with fresh buffer until the original contraction height is reestablished. […] The tissues are then washed with fresh buffer for 30 min, and the agonist dose-response curve was repeated. Rightward shifts in the dose-response curves are calculated by dividing the antagonized dose-response curve IC50 value by the unantagonized IC50 value. IC50 values represent the mean of two to four tissues. IC50 estimates and their associated standard errors are determined by using a computerized nonlinear least-squares method. (MINSQ Least Squares Parameter Estimation, version 3.05; MicroMath Inc., 1999.)

[9] = target: μ receptor (guinea pig ileum) (Cavia porcellus, UniProt A0ACM8Q262); details: data from Ananthan et al. (I), cited from earlier work; for antagonist activity GPI (μ) Ke: PL-017 as agonist; for agonist activity GPI (μ) % max resp: percentage inhibition of contraction at 1 μM
Sequence of μ receptor (guinea pig ileum) (A0ACM8Q262 1-400): as the sequence (A0ACM8Q262 1-400) above

[10] = target: T7, δ receptor (mouse vas deferens); design: from tissue; host or cells: mouse vas deferens (male ICR mice); details: DPDPE as agonist; data from Ananthan et al. (I); cited from earlier work
[11] = target: T5, opioid μ receptor; details: data from Ananthan et al. (I), cited from earlier work
[12] = target: T6, opioid δ receptor; details: read-out: Ki (nM) ± SEM δ; [3H]DADLE, rat brain membranes; data from Ananthan et al. (I); cited from earlier work
[13] = target: T1, opioid κ receptor; details: data from Ananthan et al. (I), cited from earlier work
[14] = target: T7, δ receptor (mouse vas deferens); details: percentage inhibition of contraction at 1 μM; data from Ananthan et al. (I); cited from earlier work
[15] = target: T7, δ receptor (mouse vas deferens); experiment: Mouse vas deferens (MVD) smooth muscle bioassay; details: inhibition of electrically stimulated contractions; read-out: agonist activity MVD (δ) IC50
Protocol: as §1, §2, §3

[16] = target: T3, δ receptor; details: δ receptors, partial inhibition with increasing concentrations
[17] = target: T4, μ receptor; experiment: biochemical; details: read-out: agonist activity Emax % μ
[18] = target: T2, κ receptor; details: for Ki: read-out: antagonist activity apparent Ki (nM ± SD) κ
[19] = system: mice; experiment: Tolerance regimen, repeated icv injections, tail-flick assay; details: A90 doses icv twice daily for 3 days, tail-flick on day 4; FIG. 4
From the text: Tolerance Regimen. […] Antinociceptive dose-response curves in the tail-flick assay are generated on the morning of the fourth day using the procedures outlined above.

[20] = system: mice; details: icv or ip administration in mice; Wells et al.; cited from earlier work
[21] = system: mice; details: icv or ip administration in mice; Wells et al.; cited from earlier work; remark: listed apart in the source
[22] = target: human μ receptors (Homo sapiens, UniProt P35372); details: cloned cells expressing human μ receptors; Xu et al.; cited from earlier work
Sequence of human μ receptors (P35372 whole entry): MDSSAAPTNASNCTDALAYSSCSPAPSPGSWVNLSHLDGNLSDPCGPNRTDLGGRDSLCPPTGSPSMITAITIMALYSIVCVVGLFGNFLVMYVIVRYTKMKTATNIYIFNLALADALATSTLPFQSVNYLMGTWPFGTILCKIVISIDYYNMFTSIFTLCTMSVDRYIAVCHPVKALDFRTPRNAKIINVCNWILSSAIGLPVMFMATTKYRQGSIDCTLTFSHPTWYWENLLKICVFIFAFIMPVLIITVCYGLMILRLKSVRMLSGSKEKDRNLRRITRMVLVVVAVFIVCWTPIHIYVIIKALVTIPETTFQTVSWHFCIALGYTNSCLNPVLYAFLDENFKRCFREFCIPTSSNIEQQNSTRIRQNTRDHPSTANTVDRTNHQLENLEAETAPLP

[23] = system: mice; details: repeated ip injections; Wells et al.; cited from earlier work
[24] = target: T4, μ receptor; details: guinea pig caudate membranes; Xu et al.; cited from earlier work
[25] = displacement of [3H]DADLE (1.3-2.0 nM), rat brain membranes, 100 nM DAMGO to block μ sites, read-out: Ki (nM) ± SEM δ

T1 sequence (P41144 whole entry): as the sequence (P41144 whole entry) above

| SMILES | selectivity ratio κ/δ [1] | Ki [1] [nM] | % nociception @ 300 nmol ([3]; icv, mouse tail-flick) [% @ 300 nmol] | factor that prevented determining the A50 value ([3]; icv, mouse tail-flick) | naloxone sensitivity [3] | melting point [°C] | Ki [4] [nM] | Ki [5] [nM] | selectivity ratio μ/δ [6] | Ki [6] [nM] | Kb [8] [nM] | antagonist activity GPI (μ) Ke [9] [nM] | agonist activity GPI (μ) % max resp [9] [%] | antagonist activity MVD (δ) Ke [10] [nM] | selectivity ratio μ/δ [11] | selectivity ratio κ/δ [13] | agonist activity MVD (δ) % max resp [14] [%] | IC50 [15] [nM] | Ki [7, 25] [nM] | Emax [17] [%] | further results |
| --- | --- | --- | --- | --- | --- | --- | --- | --- | --- | --- | --- | --- | --- | --- | --- | --- | --- | --- | --- | --- | --- |
| CN1CC[C@]23c4c5ccc(O)c4O[C@H]2c2ncc(-c4ccc(Cl)cc4)cc2C[C@@]3(O)[C@H]1C5 [7d, 5′-(4-Chlorophenyl)-6,7-didehydro-3,14-dihydroxy-4,5α-epoxy-17-methylpyrido[2′,3′:6,7]morphinan] | 118 | 468 ± 17 | 43 | lack of potency | partial | 196 to 198 | 17 | > 1000 | 58 | 230 ± 10 | 38.2 ± 14.7 |  |  |  |  |  |  |  |  |  | Ki [2]: 767 ± 54 nM; Ki [7]: 3.96 ± 0.23 nM; antagonist activity MVD (δ) Ke ([8]; DPDPE as agonist, 1 μM compound, 30 min preincubation): 38 nM |
| Oc1ccc2c3c1OC1c4ncc(-c5ccccc5)cc4CC4(O)C(C2)N(CC2CC2)CCC314 (stereo not drawn) [2b] |  |  |  |  |  |  |  |  |  |  |  | 43 ± 6.6 | 0 | 3.7 ± 1.0 | 16 | 20 | 4.7 |  |  |  | Ki ([11]; read-out: Ki (nM) ± SEM μ, [3H]DAMGO, rat brain membranes): 13.5 ± 1 nM; Ki [12]: 0.87 ± 0.07 nM; Ki ([13]; read-out: Ki (nM) ± SEM κ, [3H]U69,593, guinea pig brain membranes): 17.6 ± 1.6 nM |
| CN1CC[C@]23c4c5ccc(O)c4O[C@H]2c2ncc(-c4ccc(Cl)c(Cl)c4)cc2C[C@H]3[C@H]1C5 [7j, 5′-(3,4-Dichlorophenyl)-6,7-didehydro-4,5α-epoxy-3-hydroxy-17-methylpyrido[2′,3′:6,7]morphinan] | 75 | 278 ± 7 | 44 | lack of efficacy |  | 184 to 186 |  | > 1000 | 25 | 93 ± 4 |  |  |  |  |  |  |  | 489 ± 164 | 3.7 ± 0.14 | 63 ± 3 | IC50 [2]: 4770 nM; IC50 [4]: 74 nM; maximum percentage inhibition of SNC-80 stimulated [35S]GTP-γ-S binding [16]: 58±3%; maximum inhibition at the κ receptors [18]: 66±6% |
| Oc1ccc2c3c1OC1c4ncccc4CC4(O)C(C2)N(CC2CC2)CCC314 (stereo not drawn) [2a] |  |  |  |  |  |  |  |  |  |  |  | 190 ± 65 | 0 | 37.0 ± 1.0 | 1.9 | 11 | 0 |  |  |  |  |
| CN1CC[C@]23c4c5ccc(O)c4O[C@H]2c2ncc(-c4ccc(Cl)cc4)cc2C[C@H]3[C@H]1C5 [7h, 5′-(4-Chlorophenyl)-6,7-didehydro-4,5α-epoxy-3-hydroxy-17-methylpyrido[2′,3′:6,7]morphinan] | 18 | 78 ± 13 |  |  | yes |  | 11 |  | 34 | 148 ± 9.5 | 21.9 ± 2.14 |  |  |  |  |  |  | 565 ± 12.7 | 4.4 ± 0.2 | 48 ± 2 | A50 ([3]; icv, mouse tail-flick, at time of peak drug effect): 42.8 nmol; A50 potency value in the tail flick assay ([3]; mice, full agonist efficacy, FIG. 2): 21.9; blockade of antinociceptive activity by μ selective antagonist β-FNA ([3]; β-FNA 19 nmol, icv, -24 h, FIG. 3): completely blocked; shift in antinociceptive A50 value after repeated injections [19]: less than 1.1 fold; Ki [18]: 333 ± 25 nM |
| Oc1ccc2c3c1O[C@H]1c4ncc(-c5ccc(Cl)cc5)cc4C[C@@]4(O)[C@@H](C2)N(CC2CC2)CC[C@]314 [2c] |  |  |  |  | yes |  | 0.184 |  |  |  |  |  |  |  |  |  | 21 |  |  |  | analgesic activity in the tail-flick assay [20]: partial agonist activity; analgesic activity in the acetic acid writhing assay [21]: full agonist activity; μ agonist activity in [35S]GTP-γ-S binding [22]: failed to display μ agonist activity; tolerance to antinociceptive effects [23]: did not produce tolerance; μ agonist activity in [35S]GTP-γ-S binding [24]: failed to display μ agonist activity; % nociception @ 100 nmol ([3]; icv, 100 nmol, mouse tail-flick): 21% @ 100 nmol^f; Ki [18]: 11.2 ± 0.44 nM |
